The structures appear in SMILES notation. Like-named read-outs stand apart in the source and are kept apart here. Starred links: 1 amine or outer side, 2 acyl side, 3 side chain; linkers in the order of their positions; H or OH if unused. Positions of bridges follow the written chain, without caps; N, C: chain ends. Non-standard residues stand in square brackets, D forms with d. Residues, ends and D or L forms follow the SMILES beside them. ξ: configuration not given here. *: point of attachment. Dihydroorotyl(S) = O=C1C[C@@H](C(=O)*)NC(=O)N1; dβ3hPhg = O=C(C[C@H](N[*:1])c1ccccc1)[*:2]; Decanoyl(3,6,9-trioxa) = COCCOCCOCC(=O)*; Phe(3-Cl) = N[C@@H](Cc1cccc(Cl)c1)C(=O)O; Phe(4-F) = N[C@@H](Cc1ccc(F)cc1)C(=O)O; X11 = N=C(N)N[C@@H](Cc1ccccc1)C(=O)*; Bta = N[C@@H](Cc1csc2ccccc12)C(=O)O; Morpholinoacetyl = O=C(CN1CCOCC1)*; Hyp = O=C(O)[C@@H]1C[C@@H](O)CN1; d(hLeu) = CC(C)CC[C@@H](N)C(=O)O; ξNip = O=C(C1CCCN([*:1])C1)[*:2]; Cit = NC(=O)NCCC[C@H](N)C(=O)O; dCha = N[C@H](CC1CCCCC1)C(=O)O; Methoxyoxalyl = COC(=O)C(=O)*; NHCH2CH(OH)CH2OH = OCC(O)CN*; Nle = CCCC[C@H](N)C(=O)O; Orn = NCCC[C@H](N)C(=O)O; CO = O=C([*:1])[*:2]; βAla = NCCC(=O)O

In this test the target is T1, human C5aR(CD88) (Homo sapiens, UniProt P21730).
T1 construct: expressed in transfected cells; host or cells: rat basophilic leukemia cells (RBL)
T1 sequence (P21730 1-350): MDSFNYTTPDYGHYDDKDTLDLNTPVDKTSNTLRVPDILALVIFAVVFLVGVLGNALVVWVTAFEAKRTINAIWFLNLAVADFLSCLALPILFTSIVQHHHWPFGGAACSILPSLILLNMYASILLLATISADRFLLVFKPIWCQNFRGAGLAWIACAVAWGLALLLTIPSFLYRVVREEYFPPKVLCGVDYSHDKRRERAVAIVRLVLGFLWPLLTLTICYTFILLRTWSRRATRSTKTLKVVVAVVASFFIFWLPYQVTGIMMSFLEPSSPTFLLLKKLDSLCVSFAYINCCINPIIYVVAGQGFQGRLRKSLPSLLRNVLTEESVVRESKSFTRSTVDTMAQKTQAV
Put plainly: Determination of the IC50 value in an enzyme release assay (functional assay, antagonistic activity). Format: cell-based.

[1] abbreviates: antagonistic activity, IC50 group in enzyme release assay, RBL cells expressing human C5aR(CD88), read-out: activity (group).

With `O=C(N[C@@H](Cc1ccccc1)C(=O)N[C@H]1CCCNC(=O)[C@H](Cc2ccccc2)NC(=O)[C@H](Cc2c[nH]c3ccccc23)NC(=O)[C@@H](CC2CCCCC2)NC(=O)[C@@H]2C[C@@H](O)CN2C1=O)C1CCCNC1` (stereo partly drawn) [Compound 332, Fci-[Phe-Orn-Hyp-cha-Trp-Phe]] (ξNip-F[Orn][Hyp][dCha]WF; lactam 2-C), under setting [1], the IC50 was in the range of 50 to 200 nM.

With `CCCC[C@@H]1NC(=O)[C@H](Cc2c[nH]c3ccccc23)NC(=O)[C@@H](CC2CCCCC2)NC(=O)[C@@H]2CCCN2C(=O)[C@@H](NC(=O)[C@H](Cc2ccccc2)NC(=O)CON=C[C@H](O)[C@@H](O)[C@H](O)[C@H](O)CO)CCCNC1=O` [Compound 333, Fck-[Phe-Orn-Pro-cha-Trp-Nle]], the IC50 under setting [1] lay in the range of 50 to 200 nM. Still for that read-out and setting: for `O=C(CN1CCOCC1)N[C@@H](Cc1ccccc1)C(=O)N[C@H]1CCCNC(=O)[C@H](Cc2ccccc2)NC(=O)[C@H](Cc2c[nH]c3ccccc23)NC(=O)[C@@H](CC2CCCCC2)NC(=O)[C@@H]2C[C@@H](O)CN2C1=O` [Compound 335, Fha-Phe-[Orn-Hyp-cha-Trp-Phe]] (Morpholinoacetyl-F[Orn][Hyp][dCha]WF; lactam 2-C) the value was 50 to 200 nM.

Turning to `O=C(NCC(O)CO)N[C@@H](Cc1ccccc1)C(=O)N[C@H]1CCCNC(=O)[C@H](Cc2ccccc2)NC(=O)[C@H](Cc2c[nH]c3ccccc23)NC(=O)[C@@H](CC2CCCCC2)NC(=O)[C@@H]2C[C@@H](O)CN2C1=O` (stereo partly drawn) [Compound 336, Fhb-[Phe-Orn-Hyp-cha-Trp-Phe]] ({NHCH2CH(OH)CH2OH-CO}-F[Orn][Hyp][dCha]WF; lactam 2-C), under setting [1], the IC50 was in the range of 50 to 200 nM.

With `COCCOCCOCC(=O)N[C@@H](Cc1ccccc1)C(=O)N[C@H]1CCCNC(=O)[C@H](Cc2ccccc2)NC(=O)[C@H](Cc2c[nH]c3ccccc23)NC(=O)[C@@H](CC2CCCCC2)NC(=O)[C@@H]2C[C@@H](O)CN2C1=O` [Compound 337, Fhi-Phe-[Orn-Hyp-cha-Trp-Phe]] ({Decanoyl(3,6,9-trioxa)}-F[Orn][Hyp][dCha]WF; lactam 2-C), under setting [1], the IC50 was in the range of 50 to 200 nM. In the case of `CCCC[C@@H]1NC(=O)[C@H](Cc2ccc(F)cc2)NC(=O)[C@@H](CCC(C)C)NC(=O)[C@@H]2CCCN2C(=O)[C@@H](NC(=O)[C@H](Cc2ccccc2)NC(=N)N)CCCNC1=O` [Compound 338, Fhu-Phe-[Orn-Pro-hle-Pff-Nle]] (X11-[Orn]P[d(hLeu)][Phe(4-F)][Nle]; lactam 1-C), the IC50 under setting [1] lay within 50 to 200 nM. The same measure, in the same setting: for `N=C(N)N[C@@H](Cc1ccccc1)C(=O)N[C@@H](CCCN)C(=O)N1CCC[C@H]1C(=O)N[C@H](CC1CCCCC1)C(=O)N[C@@H](Cc1csc2ccccc12)C(=O)N[C@@H](Cc1ccccc1)C(N)=O` [Compound 339, Fhu-Phe-Orn-Pro-cha-Bta-Phe-NH2] (X11-[Orn]P[dCha][Bta]F-NH2) the value was 50 to 200 nM. On the same count and under the same terms, the result for `COC(=O)C(=O)N[C@@H](Cc1ccccc1)C(=O)N[C@@H](CCCN)C(=O)N1CCC[C@H]1C(=O)N[C@H](CC1CCCCC1)C(=O)N[C@@H](Cc1csc2ccccc12)C(=O)N[C@@H](Cc1ccccc1)C(N)=O` [Compound 340, Fid-Phe-Orn-Pro-cha-Bta-Phe-NH2] (Methoxyoxalyl-F[Orn]P[dCha][Bta]F-NH2) reads 50 to 200 nM. The same measure, in the same setting: for `CCCC[C@@H]1NC(=O)[C@H](Cc2c[nH]c3ccccc23)NC(=O)[C@@H](CCC(C)C)NC(=O)[C@@H]2C[C@@H](O)CN2C(=O)[C@@H](NC(=O)[C@H](Cc2ccccc2)NC(=O)CCN)CCCNC1=O` [Compound 342, H-Bal-Phe-[Orn-Hyp-hle-Trp-Nle]] (H-[βAla]F[Orn][Hyp][d(hLeu)]W[Nle]; lactam 3-C) the value was 50 to 200 nM; for `CCCC[C@@H]1NC(=O)[C@H](Cc2ccc(F)cc2)NC(=O)[C@@H](CCC(C)C)NC(=O)[C@@H]2CCCN2C(=O)[C@@H](NC(=O)[C@H](Cc2ccccc2)NC(=O)CCN)CCCNC1=O` [Compound 343, H-Bal-Phe-[Orn-Pro-hle-Pff-Nle]] (H-[βAla]F[Orn]P[d(hLeu)][Phe(4-F)][Nle]; lactam 3-C), 50 to 200 nM; for `CCCC[C@@H]1NC(=O)[C@H](Cc2c[nH]c3ccccc23)NC(=O)[C@@H](CCC(C)C)NC(=O)[C@@H]2C[C@@H](O)CN2C(=O)[C@@H](NC(=O)C[C@H](N)c2ccccc2)CCCNC1=O` [Compound 344, H-Eby-[Orn-Hyp-hle-Trp-Nle]] (dβ3hPhg-[Orn][Hyp][d(hLeu)]W[Nle]; lactam 1-C), 50 to 200 nM. Regarding `NCCC[C@H](NC(=O)[C@H](Cc1ccccc1)NC(=O)CN)C(=O)N1CCC[C@H]1C(=O)N[C@H](CC1CCCCC1)C(=O)N[C@@H](Cc1csc2ccccc12)C(=O)N[C@@H](Cc1ccccc1)C(N)=O` [Compound 345, H-Gly-Phe-Orn-Pro-cha-Bta-Phe-NH2] (H-GF[Orn]P[dCha][Bta]F-NH2), under setting [1], the IC50 lay within 50 to 200 nM. On the same count and under the same terms, the result for `CC(C)CC[C@@H](NC(=O)[C@@H]1CCCN1C(=O)[C@H](CCCNC(N)=O)NC(=O)[C@H](Cc1ccccc1)NC(=O)C1CCCNC1)C(=O)N[C@@H](Cc1csc2ccccc12)C(=O)N[C@@H](Cc1ccccc1)C(N)=O` (stereo partly drawn) [Compound 346, H-Nip-Phe-Cit-Pro-hle-Bta-Phe-NH2] (ξNip-F[Cit]P[d(hLeu)][Bta]F-NH2) reads 50 to 200 nM; that for `CCCC[C@@H]1NC(=O)[C@H](Cc2ccc(F)cc2)NC(=O)[C@@H](CCC(C)C)NC(=O)[C@@H]2C[C@@H](O)CN2C(=O)[C@@H](NC(=O)[C@H](Cc2ccccc2)NC(=O)[C@@H]2CC(=O)NC(=O)N2)CCCNC1=O` [Compound 347, Hoo-Phe-[Orn-Hyp-hle-Pff-Nle]] ({Dihydroorotyl(S)}-F[Orn][Hyp][d(hLeu)][Phe(4-F)][Nle]; lactam 2-C), 50 to 200 nM; that for `CC(C)CC[C@@H](NC(=O)[C@@H]1CCCN1C(=O)[C@H](CCCNC(N)=O)NC(=O)[C@H](Cc1ccccc1)NC(=O)[C@@H]1CC(=O)NC(=O)N1)C(=O)N[C@@H](Cc1ccc(F)cc1)C(=O)N[C@@H](Cc1ccccc1)C(N)=O` [Compound 348, Hoo-Phe-Cit-Pro-hle-Pff-Phe-NH2] ({Dihydroorotyl(S)}-F[Cit]P[d(hLeu)][Phe(4-F)]F-NH2), 50 to 200 nM. In the case of `CC(C)CC[C@@H](NC(=O)[C@@H]1C[C@@H](O)CN1C(=O)[C@H](CCCN)NC(=O)[C@H](Cc1ccccc1)NC(=O)[C@@H]1CC(=O)NC(=O)N1)C(=O)N[C@@H](Cc1ccc(F)cc1)C(=O)N[C@@H](Cc1ccccc1)C(N)=O` [Compound 349, Hoo-Phe-Orn-Hyp-hle-Pff-Phe-NH2] ({Dihydroorotyl(S)}-F[Orn][Hyp][d(hLeu)][Phe(4-F)]F-NH2), under setting [1], the IC50 is 50 to 200 nM. For the compound `CC(C)CC[C@@H](NC(=O)[C@@H]1CCCN1C(=O)[C@H](CCCN)NC(=O)[C@H](Cc1ccccc1)NC(=O)[C@@H]1CC(=O)NC(=O)N1)C(=O)N[C@@H](Cc1csc2ccccc12)C(=O)N[C@@H](Cc1ccccc1)C(N)=O` [Compound 350, Hoo-Phe-Orn-Pro-hle-Bta-Phe-NH2] ({Dihydroorotyl(S)}-F[Orn]P[d(hLeu)][Bta]F-NH2), the IC50 under setting [1] was in the range of 20 to 50 nM. `CC(C)CC[C@@H](NC(=O)[C@@H]1CCCN1C(=O)[C@H](CCCN)NC(=O)[C@H](Cc1ccccc1)NC(=O)[C@@H]1CC(=O)NC(=O)N1)C(=O)N[C@@H](Cc1cccc(Cl)c1)C(=O)N[C@@H](Cc1ccccc1)C(N)=O` [Compound 351, Hoo-Phe-Orn-Pro-hle-Mcf-Phe-NH2] ({Dihydroorotyl(S)}-F[Orn]P[d(hLeu)][Phe(3-Cl)]F-NH2): the IC50 under setting [1] fell in the range of 20 to 50 nM.

For `CC(C)CC[C@@H](NC(=O)[C@@H]1CCCN1C(=O)[C@H](CCCN)NC(=O)[C@H](Cc1ccccc1)NC(=O)[C@@H]1CC(=O)NC(=O)N1)C(=O)N[C@@H](Cc1ccc(F)cc1)C(=O)N[C@@H](Cc1ccccc1)C(N)=O` [Compound 352, Hoo-Phe-Orn-Pro-hle-Pff-Phe-NH2] ({Dihydroorotyl(S)}-F[Orn]P[d(hLeu)][Phe(4-F)]F-NH2), the IC50 under setting [1] is 20 to 50 nM. Consider `CCCC[C@@H]1NC(=O)[C@H](Cc2ccc(F)cc2)NC(=O)[C@@H](CCC(C)C)NC(=O)[C@@H]2C[C@@H](O)CN2C(=O)[C@@H](NC(=O)[C@@H](N)Cc2ccccc2)CCCCNC1=O` [Compound 353, H-Phe-[Lys-Hyp-hle-Pff-Nle]] (H-FK[Hyp][d(hLeu)][Phe(4-F)][Nle]; lactam 2-C), for which the IC50 under setting [1] was 50 to 200 nM.

In the case of `CCCC[C@@H]1NC(=O)[C@H](Cc2cccc(Cl)c2)NC(=O)[C@@H](CCC(C)C)NC(=O)[C@@H]2C[C@@H](OC)CN2C(=O)[C@@H](NC(=O)[C@@H](N)Cc2ccccc2)CCCNC1=O` [Compound 354, H-Phe-[Orn-Hym-hle-Mcf-Nle]] (H-F[Orn][Hyp](Me)[d(hLeu)][Phe(3-Cl)][Nle]; lactam 2-C), the IC50 under setting [1] was 50 to 200 nM.

For the setting “activity (group)”, `CO[C@@H]1C[C@H]2C(=O)N[C@H](CCC(C)C)C(=O)N[C@@H](Cc3ccc(F)cc3)C(=O)N[C@@H](Cc3ccccc3)C(=O)NCCC[C@H](NC(=O)[C@@H](N)Cc3ccccc3)C(=O)N2C1` [Compound 355, H-Phe-[Orn-Hym-hle-Pff-Phe]] (H-F[Orn][Hyp](Me)[d(hLeu)][Phe(4-F)]F; lactam 2-C) yielded an IC50 of 50 to 200 nM.

For the compound `CCCC[C@@H]1NC(=O)[C@H](Cc2c[nH]c3ccccc23)NC(=O)[C@@H](CC2CCCCC2)NC(=O)[C@@H]2C[C@@H](O)CN2C(=O)[C@@H](NC(=O)[C@@H](N)Cc2ccccc2)CCCNC1=O` [Compound 356, H-Phe-[Orn-Hyp-cha-Trp-Nle]] (H-F[Orn][Hyp][dCha]W[Nle]; lactam 2-C), the IC50 under setting [1] is 20 to 50 nM. Take `N[C@@H](Cc1ccccc1)C(=O)N[C@H]1CCCNC(=O)[C@H](Cc2ccccc2)NC(=O)[C@H](Cc2c[nH]c3ccccc23)NC(=O)[C@@H](CC2CCCCC2)NC(=O)[C@@H]2C[C@@H](O)CN2C1=O` [Compound 357, H-Phe-[Orn-Hyp-cha-Trp-Phe]] (H-F[Orn][Hyp][dCha]WF; lactam 2-C): the IC50 under setting [1] fell in the range of 20 to 50 nM.
